This is an account of results in paper PMC9570109, “Improved Trimethylangelicin Analogs for Cystic Fibrosis: Design, Synthesis and Preliminary Screening” (International Journal of Molecular Sciences, 2022).

For data set [1], the system named is HepG2 cells. The experiment in a line: Cytotoxicity MTT assay on HepG2 cells. To be noted: HepG2, 24 h, highest concentration tested (50 μM). A general note: Tetrazolium assays rely on reduction of a dye to a coloured formazan, in cell work by metabolically active cells.
Procedure: The potential toxicity of TMA analogs on hepatic tissue was assessed by evaluating the viability of HepG2 cells (ATCC, HB-8065) using the MTT assay, as previously reported [22]. Cells were maintained in DMEM complete medium (10% FBS, 1% l-glutamine and 1% PEN-STREP) and seeded in a 96-well plate (5 × 10^4 cells/mL). They were treated for 24 h with TMA analogs (concentration range from 3.125 μM to 50 μM). At the end of the treatment, cells were washed and an MTT solution (0.5 mg/mL in complete medium) was added to each well and incubated for 4 h at 37 °C. The solution was discarded, and the produced blue formazan crystals were dissolved with acidified isopropanol (2% HCl). Absorbance was measured at 570 nm using a multiplate reader (Victor Nivo, Perkin Elmer). The percentage of viable cells was calculated considering untreated cells as control.
The data shown in this figure are the results of three independent experiments, each
performed in quadruplicate.
Data set [2] concerns Salmonella typhimurium mutant TA97A, TA98, TA100, and TA1535 strains. The experiment in a line: Ames test, overall result on all strains. Conditions: all concentrations, with and without S9 mix. The data set is classed as cell-based. As to the method: To investigate whether changes in the structure of TMA abolish the mutagenic effect observed with this class of compounds, the most promising TMA analogs were evaluated by the Ames test. Compounds 4-PhDMA and pANDMA were tested for genotoxicity evaluation using the histidine-requiring Salmonella typhimurium mutant TA97A, TA98, TA100, and TA1535 strains that allow checking frameshift mutation and base pair substitution, with and without metabolic activation induced by S9 Mix.
The number of spontaneous revertants is relatively constant, but it dramatically increases—generally in a dose-dependent way—when a mutagen is added to the plate. […]
The mutagenicity assay was performed for the test compounds following the plate incorporation method with the histidine-requiring Salmonella typhimurium mutant TA97A, TA98, TA100, and TA1535 strains purchased by Molecular Toxicology Inc. (Boone, NC, USA; moltox.com). […] The plates were incubated at 37 °C for 72 h and then his+ revertants were checked and counted using a Colony Counter 560 Suntex (Antibioticos, Italy). […] Statistical analysis: relative standard deviations were calculated using the statistical software STATISTICA 6.0 (StatSoft, Italia srl, Vigonza, Italy).
A general note: In the Ames test, an excess of revertant colonies over the control signals mutagenicity.

Data set [3] is described as follows: In vivo oral pharmacokinetics in mice. Conditions: c57BL/6 male mice; for AUC 0-inf / CL/F / Cmax / Tmax / t1/2: 20 mg/kg gavage, in water; for oral bioavailability: water as vehicle. The procedure:
The main pharmacokinetic parameters of 4-PhDMA, pANDMA, and pANDMA mesylate were evaluated in c57BL/6 male mice, using water as dispersing vehicle.
All experimental procedures involving animals were conducted in accordance with the 3R principle to minimize their pain and discomfort. […] For the PK analysis, C57Bl6 male mice (n = 3 per time point) were gavaged with selected compounds (20 mg/kg), suspended in water, or dissolved in SEDDS formulations, after an overnight fast. […] 8.0 software (GraphPad Software Inc., San Diego, CA, USA), when appropriate. If not otherwise stated, the PK data are expressed as mean ± SD. p < 0.05 was considered statistically significant.
The TMA analogs were extracted and analyzed from mouse plasma as already reported. Briefly, 100 µL of plasma were treated with 300 µL of cold acetonitrile spiked with 80 nM of internal standard (IS, 6,4′-dimethylangelicin), and then the samples were centrifuged for 10 min at 12,000× g (Hettich Mikro 120 Benchtop Centrifuge) and 25 °C. Ten microliters of the supernatant were injected into the UHPLC system.
The analytical column was a Kinetex 2.6 μm C18 Polar, 100 A, 100 × 2.1 mm (Phenomenex, Bologna, Italy), thermostated at 30 °C. The mobile phase components A and B were water and methanol, respectively, both containing 10 mM ammonium formate. The eluent flow rate was 0.25 mL/min. […] MS data were analyzed using the Mass Hunter Qualitative Analysis software (Agilent Technologies, Palo Alto, CA, USA).
Chromatographic peaks of the TMA analog were identified and integrated by considering the Extracted Ion Chromatogram (EIC) of the [M+H]^+ species selected with a window of 5 ppm and normalized by the IS. Quantification of TMA analogs was carried out by external calibration of normalized signals using a seven-point calibration curve obtained by spiking blank plasma with each TMA analog in the range of 20–3000 nM.

In the case of `Cc1cc2c(-c3ccccc3)cc(=O)oc2c2c(C)coc12` [4-PhDMA], the cell viability entry in data set [1] was “greater than 75%”. Besides, the “genotoxic activity (Ames test)” value in data set [2] is “non-genotoxic”. In data set [3], the “AUC 0-inf” value stood at 2.74736 ± 0.51361 µM·h, the CL/F is reported as 0.0014 ± 0.0014 mL/h/g, the peak level (Cmax) was 222 ± 184 nM and the Tmax turned out to be 1.25 ± 1.06 h. Besides, in data set [3], the t1/2 was determined as 21.13 ± 0.98 h and the oral bioavailability result is recorded as “very low”.
Turning to `Cc1cc(=O)oc2c1cc(-c1ccc(N)cc1)c1occ(C)c12` [pANDMA], the cell viability entry in data set [1] is given as “greater than 75%”. In data set [2], the “genotoxic activity (Ames test)” value was “non-genotoxic”. In data set [3], the “AUC 0-inf” value is 2.4054 ± 0.2082 µM·h, the CL/F is reported as 0.0083 ± 0.0007 mL/h/g, the Tmax was determined as 0.5 ± 0 h and the t1/2 is recorded as 1.91 ± 0.71 h. Also, the oral bioavailability entry in data set [3] is given as “very low”. The compound also registered a Cmax in data set [3] (20 mg/kg) of 1520 ± 261 nM.

A word on the Cmax: it is the maximum level reached in the sampled fluid or tissue. A word on the Tmax: it is the time at which the peak concentration occurs.
